What was measured:
[1] = biological target: T1, FLT3 (Homo sapiens, UniProt P36888); assay: TR-FRET kinase activity assay, FLT3; assay type: biochemical; conditions: ATP at Km, 60 minutes
T1 sequence (P36888 27-993): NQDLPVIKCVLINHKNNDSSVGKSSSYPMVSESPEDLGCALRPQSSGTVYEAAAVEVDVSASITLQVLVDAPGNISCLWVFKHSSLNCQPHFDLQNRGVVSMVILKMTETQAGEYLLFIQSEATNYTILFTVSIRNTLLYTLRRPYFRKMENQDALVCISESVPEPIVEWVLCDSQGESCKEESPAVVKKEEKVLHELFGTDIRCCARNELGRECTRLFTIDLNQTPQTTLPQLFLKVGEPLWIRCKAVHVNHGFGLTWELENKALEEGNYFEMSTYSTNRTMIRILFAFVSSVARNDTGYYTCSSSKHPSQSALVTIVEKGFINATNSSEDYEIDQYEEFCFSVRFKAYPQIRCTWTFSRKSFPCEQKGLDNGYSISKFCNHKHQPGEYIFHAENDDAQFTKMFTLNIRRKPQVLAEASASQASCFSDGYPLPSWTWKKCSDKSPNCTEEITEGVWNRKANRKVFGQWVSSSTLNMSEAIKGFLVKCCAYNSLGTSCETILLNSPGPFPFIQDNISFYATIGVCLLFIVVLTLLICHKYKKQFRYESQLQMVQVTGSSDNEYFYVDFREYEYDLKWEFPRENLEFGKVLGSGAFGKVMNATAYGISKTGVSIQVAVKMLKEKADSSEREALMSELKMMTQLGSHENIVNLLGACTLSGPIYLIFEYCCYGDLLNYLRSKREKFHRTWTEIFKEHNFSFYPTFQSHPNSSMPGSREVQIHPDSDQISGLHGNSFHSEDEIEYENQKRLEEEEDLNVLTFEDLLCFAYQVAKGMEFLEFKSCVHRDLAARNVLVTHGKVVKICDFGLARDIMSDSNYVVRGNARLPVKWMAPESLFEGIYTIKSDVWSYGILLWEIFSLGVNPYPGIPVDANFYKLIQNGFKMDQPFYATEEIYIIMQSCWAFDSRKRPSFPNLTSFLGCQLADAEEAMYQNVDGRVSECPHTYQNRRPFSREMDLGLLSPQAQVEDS
Procedure, shortened: (§1)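 IC50 came from TR-FRET signal after 30 min dark development with a Europium-labeled phospho-specific antibody. This followed a 60 min RT reaction, stopped with EDTA, started with ATP at Km per enzyme. Peptide substrate, enzyme and compound were premixed in HEPES pH 7.5 buffer with MgCl2, EGTA, Brij 35 and DTT.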

[2] = biological target: T2, TYRO3 (Homo sapiens, UniProt Q06418); assay: TR-FRET kinase activity assay, TYRO3; assay type: biochemical; conditions: ATP at Km, 60 minutes
T2 sequence (Q06418 41-890): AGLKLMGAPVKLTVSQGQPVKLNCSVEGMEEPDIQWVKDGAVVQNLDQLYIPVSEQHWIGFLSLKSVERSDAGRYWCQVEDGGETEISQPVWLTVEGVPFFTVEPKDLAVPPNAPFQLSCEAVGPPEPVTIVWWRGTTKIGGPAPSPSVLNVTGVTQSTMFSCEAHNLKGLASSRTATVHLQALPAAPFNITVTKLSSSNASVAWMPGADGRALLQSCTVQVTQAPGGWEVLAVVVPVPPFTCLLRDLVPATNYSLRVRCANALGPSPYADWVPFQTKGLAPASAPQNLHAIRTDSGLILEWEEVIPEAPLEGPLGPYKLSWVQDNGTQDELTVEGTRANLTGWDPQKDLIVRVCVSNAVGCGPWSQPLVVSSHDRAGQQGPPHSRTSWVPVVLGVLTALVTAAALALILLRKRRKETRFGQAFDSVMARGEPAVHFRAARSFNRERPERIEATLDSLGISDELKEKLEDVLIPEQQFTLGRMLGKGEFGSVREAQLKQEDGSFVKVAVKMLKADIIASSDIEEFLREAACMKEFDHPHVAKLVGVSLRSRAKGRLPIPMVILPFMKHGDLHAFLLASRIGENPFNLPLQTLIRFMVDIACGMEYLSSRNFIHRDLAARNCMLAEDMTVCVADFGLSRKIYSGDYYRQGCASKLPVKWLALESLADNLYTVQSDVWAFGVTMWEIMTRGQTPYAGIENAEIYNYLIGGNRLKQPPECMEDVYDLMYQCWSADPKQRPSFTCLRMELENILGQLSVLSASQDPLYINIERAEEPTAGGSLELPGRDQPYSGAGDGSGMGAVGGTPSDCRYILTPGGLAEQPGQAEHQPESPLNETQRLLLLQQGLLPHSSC
Procedure, shortened: as §1

Row | IC50 [1] [nM] | IC50 [2] [nM] | SMILES
1 | 1000 to 10000 | 100 to 1000 | COCCN1C(C)(C)CC(Oc2ncc([C@H]3CC[C@H](O)CC3)c3nc(N[C@@H]4CCOC4)ncc23)CC1(C)C [Compound 390]
2 | 100 to 1000 | ≤ 100 | CCN1C(C)(C)CC(Oc2ncc([C@H]3CC[C@H](O)CC3)c3nc(N[C@@H](C)CC(F)(F)F)ncc23)CC1(C)C [Compound 391]
3 | 100 to 1000 | ≤ 100 | O[C@H]1CC[C@H](c2cnc(OC3CCOCC3)c3cnc(Nc4ccc(-c5nn[nH]n5)cc4)nc32)CC1 [Compound 392]
4 | 1000 to 10000 | ≤ 100 | COC[C@H](C)Nc1ncc2c(O[C@H]3C[C@@H](C(=O)N4CCN(C)CC4)C3)ncc([C@H]3CC[C@H](O)CC3)c2n1 [Compound 393]
5 | 1000 to 10000 | 100 to 1000 | C[C@@H](Nc1ncc2c(OC3CCOCC3)ncc([C@H]3CC[C@H](O)CC3)c2n1)C(F)F [Compound 394]
6 | 1000 to 10000 | 1000 to 10000 | COC[C@H](C)Nc1ncc2c(OC3CCOCC3)ncc(-c3ccc(F)cc3)c2n1 [Compound 395]
7 | 1000 to 10000 | 100 to 1000 | COC[C@H](C)Nc1ncc2c(OC3CCOCC3)ncc(-c3ccc(C#N)cc3)c2n1 [Compound 396]
8 | ≤ 100 | ≤ 100 | O=C(O)c1ccc(Nc2ncc3c(OC4CCOCC4)ncc([C@H]4CC[C@H](O)CC4)c3n2)cc1 [Compound 397]
9 | 100 to 1000 | ≤ 100 | CNC(=O)c1ccc(Nc2ncc3c(OC4CCOCC4)ncc([C@H]4CC[C@H](O)CC4)c3n2)cc1 [Compound 398]
10 | ≤ 100 | ≤ 100 | NC(=O)c1ccc(Nc2ncc3c(OC4CCOCC4)ncc([C@H]4CC[C@H](O)CC4)c3n2)cc1 [Compound 399]
11 | 1000 to 10000 | 100 to 1000 | COC[C@H](C)Nc1ncc2c(OC3CCOCC3)ncc(-c3ccc(S(C)(=O)=O)cc3)c2n1 [Compound 400]
12 | 1000 to 10000 | 100 to 1000 | C[C@H](CF)Nc1ncc2c(OC3CCOCC3)ncc([C@H]3CC[C@H](O)CC3)c2n1 [Compound 401]
13 | 100 to 1000 | ≤ 100 | C[C@@H](CC(F)(F)F)Nc1ncc2c(O[C@H]3C[C@@H](CN4CCOCC4)C3)ncc([C@H]3CC[C@H](O)CC3)c2n1 [Compound 402]
14 | 1000 to 10000 | 1000 to 10000 | COC[C@H](C)Nc1ncc2c(C(F)(F)F)ncc([C@H]3CC[C@H](O)CC3)c2n1 [Compound 403]
15 | 1000 to 10000 | 100 to 1000 | CC1(Nc2ncc3c(OC4CCOCC4)ncc(-c4cccc(NS(C)(=O)=O)c4)c3n2)CC1 [Compound 404]
16 | 1000 to 10000 | 100 to 1000 | CC1(Nc2ncc3c(OC4CCOCC4)ncc(-c4cccc(S(=O)(=O)N5CCC5)c4)c3n2)CC1 [Compound 405]
17 | 1000 to 10000 | ≤ 100 | C[C@H](CC(F)(F)F)Nc1ncc2c(O[C@H]3C[C@@H](O)C3)ncc([C@H]3CC[C@H](O)CC3)c2n1 [Compound 406]

Row | IC50 [1] [nM] | IC50 [2] [nM] | SMILES
18 | 1000 to 10000 | ≤ 100 | C[C@@H](COC(F)F)Nc1ncc2c(O[C@H]3C[C@@H](O)C3)ncc([C@H]3CC[C@H](O)CC3)c2n1 [Compound 407]
19 | 100 to 1000 | ≤ 100 | C[C@@H](CC(F)(F)F)Nc1ncc2c(O[C@H]3C[C@@H](N4CCOCC4)C3)ncc([C@H]3CC[C@H](O)CC3)c2n1 [Compound 408]
20 | 100 to 1000 | ≤ 100 | C[C@@H](CC(F)(F)F)Nc1ncc2c(O[C@H]3C[C@@H](O)C3)ncc(-c3ccc(C4(C#N)CC4)cc3)c2n1 [Compound 409]
21 | 1000 to 10000 | 100 to 1000 | O=C(O)[C@H]1CC[C@H](Nc2ncc3c(OC4CCOCC4)ncc([C@H]4CC[C@H](O)CC4)c3n2)CC1 [Compound 410]
22 | 1000 to 10000 | ≤ 100 | C[C@H](Nc1ncc2c(O[C@H]3C[C@@H](O)C3)ncc([C@H]3CC[C@H](O)CC3)c2n1)C(F)F [Compound 411]
23 | 100 to 1000 | ≤ 100 | CO[C@H]1C[C@@H]1Nc1ncc2c(O[C@H]3C[C@@H](O)C3)ncc([C@H]3CC[C@H](O)CC3)c2n1 [Compound 417]
24 | ≤ 100 | ≤ 100 | C[C@@H](CC(F)(F)F)Nc1ncc2c(OC3CC(C)(C)N(C[C@@H]4CCCO4)C(C)(C)C3)ncc([C@H]3CC[C@H](O)CC3)c2n1 [Compound 418]
25 | 1000 to 10000 | ≤ 100 | COC[C@H](C)Nc1ncc2c(O[C@H]3C[C@H](C(=O)N4CCN(C)CC4)C3)ncc([C@H]3CC[C@H](O)CC3)c2n1 [Compound 419]
26 | 100 to 1000 | ≤ 100 | C[C@@H](CC(F)(F)F)Nc1ncc2c(O[C@H]3C[C@H](CN4CCOCC4)C3)ncc([C@H]3CC[C@H](O)CC3)c2n1 [Compound 420]
27 | 100 to 1000 | ≤ 100 | C[C@@H](CC(F)(F)F)Nc1ncc2c(O[C@H]3C[C@H](N4CCOCC4)C3)ncc([C@H]3CC[C@H](O)CC3)c2n1 [Compound 422]
28 | 100 to 1000 | ≤ 100 | C[C@@H](CC(F)(F)F)Nc1ncc2c(O[C@H]3C[C@@H](O)C3)ncc([C@H]3CC[C@](C)(O)CC3)c2n1 [Compound 423]
29 | 100 to 1000 | ≤ 100 | C[C@@H](CC(F)(F)F)Nc1ncc2c(O[C@H]3C[C@@H](O)C3)ncc([C@H]3CC[C@@](C)(O)CC3)c2n1 [Compound 424]
30 | 1000 to 10000 | 1000 to 10000 | COC[C@H](C)Nc1ncc2c(O[C@H]3C[C@@H](O)C3)ncc(-c3ccnnc3)c2n1 [Compound 425]
31 | 1000 to 10000 | ≤ 100 | COC[C@H](C)Nc1ncc2c(O[C@H]3C[C@@H](O)C3)ncc([C@H]3CC[C@](C)(O)CC3)c2n1 [Compound 426]
32 | > 10000 | ≤ 100 | COC[C@H](C)Nc1ncc2c(O[C@H]3C[C@@H](O)C3)ncc([C@H]3CC[C@@](C)(O)CC3)c2n1 [Compound 427]
33 | 100 to 1000 | ≤ 100 | C[C@@H](CC(F)F)Nc1ncc2c(O[C@H]3C[C@@H](O)C3)ncc([C@H]3CC[C@H](O)CC3)c2n1 [Compound 428]

Row | SMILES | IC50 [1] [nM] | IC50 [2] [nM]
34 | C[C@@H](CC(F)(F)F)Nc1ncc2c(O[C@@H]3C[C@H]4CC[C@@H](C3)N4C[C@H]3CCCO3)ncc([C@H]3CC[C@H](O)CC3)c2n1 [Compound 412] | ≤ 100 | ≤ 100
35 | C[C@@H](CC(F)(F)F)Nc1ncc2c(O[C@@H]3C[C@H]4CC[C@@H](C3)N4[C@H]3CCOC3)ncc([C@H]3CC[C@H](O)CC3)c2n1 [Compound 413] | ≤ 100 | ≤ 100
36 | C[C@@H](CC(F)(F)F)Nc1ncc2c(O[C@@H]3C[C@H]4CC[C@@H](C3)N4C[C@H]3CCOC3)ncc([C@H]3CC[C@H](O)CC3)c2n1 [Compound 414] | ≤ 100 | ≤ 100
37 | C[C@@H](CC(F)(F)F)Nc1ncc2c(O[C@@H]3C[C@H]4CC[C@@H](C3)N4[C@@H]3CCOC3)ncc([C@H]3CC[C@H](O)CC3)c2n1 [Compound 415] | 100 to 1000 | ≤ 100
38 | C[C@@H](CC(F)(F)F)Nc1ncc2c(O[C@@H]3C[C@H]4CC[C@@H](C3)N4C[C@@H]3CCOC3)ncc([C@H]3CC[C@H](O)CC3)c2n1 [Compound 416] | ≤ 100 | ≤ 100
39 | C[C@@H](CC(F)(F)F)Nc1ncc2c(O[C@@H]3C[C@H]4CC[C@@H](C3)N4C[C@@H]3CCCO3)ncc([C@H]3CC[C@H](O)CC3)c2n1 [Compound 421] | ≤ 100 | ≤ 100

— US20200291018A1, “TAM KINASE INHIBITORS” (SYROS PHARMACEUTICALS, INC., priority 2017, published 2020)
